Data on eight molecules can be found in publication PMC9077138, “An investigation on 3-acetyl-7-methoxy-coumarin Schiff bases and their Ru(II) metallates with potent antiproliferative activity and enhanced LDH and NO release” (RSC Advances, 2018).

The test system of one series is CT-DNA. Briefly: EB-DNA competitive binding (fluorescence quenching). Set-up: species or system calf. The note with it: compounds 10–100 μM; for quenching of the emission band of DNA-bound EB: % of the initial fluorescence intensity; for Quenching constant KSV: Stern–Volmer, DNA-EB 10 μM. The protocol:
The competitive binding experiments were carried out on the EB–CT-DNA system by varying the concentrations of the ligands and complexes to get further information about the binding mode of compounds with DNA. In our studies, it was noted that upon concomitant addition of the compounds to the EB-DNA system, emission intensity decreased progressively, indicative of competition between EB and compounds towards CT-DNA in binding/chelation (Fig. S26 ^†). The reduction of the fluorescence emission intensity gives criteria to investigate the DNA binding propensity of the compounds and stacking interaction (intercalation) between the adjacent DNA base pairs.[45] […] This provides a direct evidence for the intercalative binding mode of the compounds with DNA.
Further quantitative measurement of the magnitude of interaction was ascertained by the classical Stern–Volmer equation. Quenching constant KSV is used to evaluate the quenching efficiency and is obtained from the slope of Io/I versus [Q] […] Further, the calculated KSV values of the compounds are significant when compared to the reported values.[30,31]
Supplementary Information
All the experiments involving CT-DNA binding were carried out in deionised water with tris(hydroxymethyl)-aminomethane (Tris, 5 mM) and sodium chloride (50 mM) and adjusted to pH 7.2 with hydrochloric acid at room temperature. The concentration of CT-DNA was determined by UV absorbance at 260 nm. Solutions of CT-DNA in Tris-HCl buffer gave a ratio of UV absorbance at 260 and 280 nm, A260/A280, of approximately 1.9, […]
The molar absorption coefficient, […]
[DNA]/[εa-εf]) = [DNA]/[ε b-εf]+1/Kb[εb-εf] (S1) […]
EB-DNA. The change in the fluorescence intensity was recorded. Before measurements, the system was shaken well and incubated at room temperature for 5 min. […]

In another series the target is T1, BSA (Bos taurus, UniProt P02769).
T1 construct: purchased HiMedia (Mumbai, India)
T1 sequence (P02769 25-607): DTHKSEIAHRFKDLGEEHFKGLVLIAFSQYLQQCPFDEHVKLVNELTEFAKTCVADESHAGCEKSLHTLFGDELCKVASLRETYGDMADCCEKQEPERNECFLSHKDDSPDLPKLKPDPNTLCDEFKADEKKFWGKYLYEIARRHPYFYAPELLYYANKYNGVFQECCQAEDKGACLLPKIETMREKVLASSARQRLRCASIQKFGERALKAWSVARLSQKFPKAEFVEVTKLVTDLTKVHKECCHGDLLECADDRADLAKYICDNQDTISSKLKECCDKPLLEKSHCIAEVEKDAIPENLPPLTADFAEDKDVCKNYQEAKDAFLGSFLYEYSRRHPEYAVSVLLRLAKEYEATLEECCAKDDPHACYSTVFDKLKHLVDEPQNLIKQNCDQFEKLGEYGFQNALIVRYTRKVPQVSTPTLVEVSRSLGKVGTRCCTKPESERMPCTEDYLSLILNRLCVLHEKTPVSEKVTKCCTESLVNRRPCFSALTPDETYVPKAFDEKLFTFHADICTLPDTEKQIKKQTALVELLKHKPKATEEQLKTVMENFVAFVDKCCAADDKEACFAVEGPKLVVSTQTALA
Briefly: Three-dimensional fluorescence spectra of BSA. The note with it: BSA 10 μM + compound 10 μM, pH 7.4, 298 K. In kind it is binding, bovine. An excerpt:
(§1) To investigate the micro environmental changes in BSA/HSA during interaction with the compounds, three dimensional fluorescence spectroscopic studies have been performed. The changes observed in 3D emission spectra and contour lines of serum albumins in the absence and presence of ligands and complexes are given in Fig. 15, 16, S34 and S35 in the ESI ^† and their corresponding characteristic parameters are provided in Table 5. The emission spectra of serum albumins such as BSA and HSA have shown three characteristic peaks – peaks A and C corresponds to first and second order Rayleigh scattering and peak B corresponds to the spectral characteristics of Trp and Tyr residues of proteins.[57] The emission intensity of Rayleigh first order scattering peak increased upon adding the compounds to serum albumins. […] The fluorescence intensity of peak ‘B’ corresponding to the tryptophan and tyrosine residues decreased with slight blue shift. From the results, it is inferred that the molecular microenvironment and conformational changes of protein occurred after interaction with the complexes and ligands.
Fig. 15 Three-dimensional fluorescence spectra of BSA in the absence and presence of ruthenium(II) complexes 1–4 (pH 7.4, 298 K, [BSA] = 10 μM, [complex] = 10 μM).
Fig. S34. Three-dimensional fluorescence spectra of BSA in the absence and presence of
(§2) ligands H 2L1-4 (pH 7.4, 298 K, [HSA] =10 µM, [Ligand] =10 µM) […]

A further series addresses T2, HSA (Homo sapiens, UniProt P02768).
T2 construct: purchased HiMedia (Mumbai, India)
Briefly: Three-dimensional fluorescence spectra of HSA. The note with it: HSA 10 μM + compound 10 μM, pH 7.4, 298 K. In kind it is binding.
From the text: as §1
Fig. 16 Three-dimensional fluorescence spectra of HSA in the absence and presence of ruthenium(II) complexes 1–4 (pH 7.4, 298 K, [HSA] = 10 μM, [complex] = 10 μM).
Fig. S35. Three-dimensional fluorescence spectra of HSA in the absence and presence of
as §2

A short description of series [1]: DPPH radical scavenging assay. The note with it: in methanol. As for the experimental part:
(§3) It has been reported that free radical species such as reactive oxygen species (ROS), are involved in the pathogenesis of various diseases through effects on DNA directly and by acting as a tumour promoter.[59,60] The DPPH free radical scavenging activity of the ligands and complexes were studied and quantitatively antioxidant properties were determined by using phosphomolybdate method. We knew that the inhibitory effects of the tested compounds on DPPH radical are concentration dependent and the suppression ratio increases with increasing sample concentrations (Fig. S36 ^†). […] In the phosphomolybdenum assay, the antioxidant activity is expressed as the number of equivalents of ascorbic acid (Table 6). The total antioxidant activity of the compounds is in the following order complex 3 > complex 2 > complex 1 > complex 4 > H2L^3 > H2L^2 > H2L^1 > H2L^4 > ascorbic acid > [RuHClCO(PPh3)3]. The results concluded that the metal complexes are better antioxidants than their parent ligands which may be due to the chelation of the ligands to metal ion.[35] The radical scavenging ability of the new complexes is greater than that of few other reported ruthenium complexes, containing Schiff base ligands.[9]
(§4) The DPPH radical scavenging activity of the compounds have been carried out according to the reported method.[74] In this study, various concentrations of the experimental standard ascorbic acid, [RuHCl(CO)(PPh3)3], ligands (20–100 μM) and complexes (2–10 μM) in methanol were taken. Total antioxidant activity of the compounds was determined by the phosphomolybdate method.[75]
(In general: The DPPH test is a chemical assay of radical scavenging.)

A short description of series [2]: Total antioxidant capacity, phosphomolybdate method. The protocol: as §3, §4

T2 sequence (P02768 25-609): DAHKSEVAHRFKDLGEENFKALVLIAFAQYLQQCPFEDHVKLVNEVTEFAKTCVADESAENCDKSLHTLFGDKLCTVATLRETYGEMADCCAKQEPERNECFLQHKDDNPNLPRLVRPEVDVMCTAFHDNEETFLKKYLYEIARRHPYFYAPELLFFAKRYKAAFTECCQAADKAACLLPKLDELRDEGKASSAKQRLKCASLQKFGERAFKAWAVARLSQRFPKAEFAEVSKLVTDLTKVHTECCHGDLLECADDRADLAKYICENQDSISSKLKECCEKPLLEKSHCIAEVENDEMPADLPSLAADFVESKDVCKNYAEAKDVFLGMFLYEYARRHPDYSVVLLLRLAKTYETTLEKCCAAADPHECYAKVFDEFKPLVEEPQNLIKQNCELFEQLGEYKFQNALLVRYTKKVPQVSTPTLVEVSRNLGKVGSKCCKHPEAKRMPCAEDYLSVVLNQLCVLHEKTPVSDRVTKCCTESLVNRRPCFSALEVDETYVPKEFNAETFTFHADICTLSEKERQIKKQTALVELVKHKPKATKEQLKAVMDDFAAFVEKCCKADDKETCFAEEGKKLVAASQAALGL

Turning to `COc1ccc2[c]3c(c(=O)oc2c1)C(C)=[N+]1N=C(N)[S][Ru-4]31([C]#[O+])([P+](c1ccccc1)(c1ccccc1)c1ccccc1)[P+](c1ccccc1)(c1ccccc1)c1ccccc1` [Complex 1, [Ru(7MAC-tsc)(CO)(PPh3)2]], in the series on CT-DNA, the “quenching of the emission band of DNA-bound EB” value (“quenching … of DNA-bound EB” below) is on record as 27.83% and the “Quenching constant KSV” value is listed as 4.16 ± 0.002 × 10^3 M^−1. Besides, at BSA, the “Fluorescence peaks Intensity (F)” value was determined as 395.56, the “Fluorescence peaks Peak position λex/λem” value is recorded as 280/338, the “Fluorescence peaks Stokes Δλ” value is on record as 58 nm and the “Rayleigh scattering peaks Intensity (F)” value is on record as 867.32. For the same molecule, on HSA, the “Fluorescence peaks Intensity (F)” value is recorded as 268.14, the “Fluorescence peaks Peak position λex/λem” value is on record as 280/335, the “Fluorescence peaks Stokes Δλ” value worked out at 55 nm and the “Rayleigh scattering peaks Intensity (F)” value was 652.04. Moreover, in series [1], the concentration for half-maximal inhibition (IC50) (as a rule, the midpoint of a concentration-inhibition curve) was found to be 7.13 ± 0.23 µM. Moreover, the Total antioxidant capacity in series [2] is given as 54.13 ± 0.28 μg ascorbic acid equivalents/ml.

On to `CNC1=N[N+]2=C(C)c3[c](c4ccc(OC)cc4oc3=O)[Ru-4]2([C]#[O+])([P+](c2ccccc2)(c2ccccc2)c2ccccc2)([P+](c2ccccc2)(c2ccccc2)c2ccccc2)[S]1` [Complex 2, [Ru(7MAC-mtsc)(CO)(PPh3)2]], for which, in the series with CT-DNA, the “quenching … of DNA-bound EB” value is listed as 36.67% and the “Quenching constant KSV” value was 5.52 ± 0.009 × 10^3 M^−1. Further, at BSA, the “Fluorescence peaks Intensity (F)” value was 372.76, the “Fluorescence peaks Peak position λex/λem” value was 280/339, the “Fluorescence peaks Stokes Δλ” value was 59 nm and the “Rayleigh scattering peaks Intensity (F)” value was 837.83. On HSA, the “Fluorescence peaks Intensity (F)” value was 269.53, the “Fluorescence peaks Peak position λex/λem” value is reported as 280/331, the “Fluorescence peaks Stokes Δλ” value is 51 nm and the “Rayleigh scattering peaks Intensity (F)” value stood at 790.59. Moreover, in series [1], the midpoint of inhibition, the IC50, lay at 6.75 ± 0.18 µM. For the same molecule, in series [2], the Total antioxidant capacity is 58.27 ± 0.46 μg ascorbic acid equivalents/ml.

As to `CCNC1=N[N+]2=C(C)c3[c](c4ccc(OC)cc4oc3=O)[Ru-4]2([C]#[O+])([P+](c2ccccc2)(c2ccccc2)c2ccccc2)([P+](c2ccccc2)(c2ccccc2)c2ccccc2)[S]1` [Complex 3, [Ru(7MAC-etsc)(CO)(PPh3)2]], in the series on CT-DNA, the “quenching … of DNA-bound EB” value was found to be 36.99% and the “Quenching constant KSV” value is reported as 5.62 ± 0.003 × 10^3 M^−1. At BSA, the “Fluorescence peaks Intensity (F)” value turned out to be 304.43, the “Fluorescence peaks Peak position λex/λem” value is on record as 280/339, the “Fluorescence peaks Stokes Δλ” value came out at 59 nm and the “Rayleigh scattering peaks Intensity (F)” value amounted to 958.23. Moreover, at HSA, the “Fluorescence peaks Intensity (F)” value came out at 266.21, the “Fluorescence peaks Peak position λex/λem” value is 280/337, the “Fluorescence peaks Stokes Δλ” value was 57 nm and the “Rayleigh scattering peaks Intensity (F)” value came out at 612.58. The IC50 in series [1] came to 5.28 ± 0.24 µM. The Total antioxidant capacity in series [2] is 62.71 ± 0.37 μg ascorbic acid equivalents/ml.

As for `COc1ccc2[c]3c(c(=O)oc2c1)C(C)=[N+]1N=C(Nc2ccccc2)[S][Ru-4]31([C]#[O+])([P+](c1ccccc1)(c1ccccc1)c1ccccc1)[P+](c1ccccc1)(c1ccccc1)c1ccccc1` [Complex 4, [Ru(7MAC-ptsc)(CO)(PPh3)2]], in the series with CT-DNA, the “quenching … of DNA-bound EB” value is on record as 28.92% and the “Quenching constant KSV” value is recorded as 4.00 ± 0.002 × 10^3 M^−1. Besides, on BSA, the “Fluorescence peaks Intensity (F)” value was determined as 368.76, the “Fluorescence peaks Peak position λex/λem” value was 280/340, the “Fluorescence peaks Stokes Δλ” value stood at 60 nm and the “Rayleigh scattering peaks Intensity (F)” value worked out at 741.59. On HSA, the “Fluorescence peaks Intensity (F)” value came to 276.12, the “Fluorescence peaks Peak position λex/λem” value is reported as 280/332, the “Fluorescence peaks Stokes Δλ” value turned out to be 52 nm and the “Rayleigh scattering peaks Intensity (F)” value came to 830.46. Further, in series [1], the IC50 amounted to 7.39 ± 0.14 µM. The Total antioxidant capacity in series [2] is recorded as 54.99 ± 0.65 μg ascorbic acid equivalents/ml.

For the molecule `COc1ccc2cc(C(C)=NNC(N)=S)c(=O)oc2c1` [H2L^1, ((1E)-1-(1-(7-methoxy-2-oxo-2H-chromen-3-yl)ethylidene)thiosemicarbazone)], the melting point (as a rule, the temperature, or range, at which the solid turns liquid) worked out at 213 °C.

For `CNC(=S)NN=C(C)c1cc2ccc(OC)cc2oc1=O` [H2L^2, ((1E)-1-(1-(7-methoxy-2-oxo-2H-chromen-3-yl)ethylidene) 4(N)-methylthiosemicarbazone)], the melting point is 117 °C.

With `CCNC(=S)NN=C(C)c1cc2ccc(OC)cc2oc1=O` [H2L^3, ((1E)-1-(1-(7-methoxy-2-oxo-2H-chromen-3-yl)ethylidene) 4(N)-ethylthiosemicarbazone)], the melting point is 174 °C.

`COc1ccc2cc(/C(C)=N\NC(=S)Nc3ccccc3)c(=O)oc2c1` [H2L^4, ((1E)-1-(1-(7-methoxy-2-oxo-2H-chromen-3-yl)ethylidene) 4(N)-phenylthiosemicarbazone)] displayed a melting point of 186 °C.
